Key:
Assay type in all cases: in vivo
[1] = tested on: C57/B6 mice exposed to TBI; test: Morris water maze after TBI; settings: for memory / cognitive impairment after TBI (MWM probe): 5 mg/kg twice daily started 24 hours after injury, tested 2 weeks after injury
Procedure: (A) Experimental Timeline: 8 week old C57/B6 mice were exposed to sham-injury or TBI. Twice daily treatment with 5 mg/kg (+)-SW033291 or vehicle was started 24 hours after injury and continued throughout the duration of the experiment. Animals were tested for cognitive performance in the Morris water maze (MWM) 2 weeks after injury. (B) Animals were trained to find the hidden platform in the MWM for 4 consecutive days (4 trials/day), with performance measured as latency to find the hidden platform. […] (C, D) To probe for spatial memory of the learned location of the hidden platform, one day after the final learning day the animals were tested in the same MWM except the platform was removed. Memory was measured as latency to first cross the area where the platform was located and the number of times the animal crossed that area. […] Individual mouse data points are shown on the graph. Data was analyzed using two-way repeated measures ANOVA; * p<0.05, ** p<0.01, *** p<0.001. All data is mean±SEM

[2] = tested on: 5×FAD and wild type (WT) mice; test: BrdU staining, survival of newborn hippocampal neurons; settings: 5 mg/kg/day twice daily from 2 to 6 months; for survival of newborn hippocampal neurons (BrdU): 28 days after BrdU
Procedure: Two month old 5×FAD and wild type (WT) littermates were treated with 5 mg/kg/day twice daily (+)-SW033291 (or vehicle) every day from 2 to 6 months. At 5 months of age, mice were injected with a single dose of 150 mg/kg bromodeoxyuridine (BrdU) to label replicating cells. At the age of 6 months (28 days after BrdU) mice were transcardially perfused and brains were dissected for examination of fixed tissue. […] Individual mouse data points are shown on the graph. Data was analyzed using two-way repeated measures ANOVA; * p<0.05, ** p<0.01, ***p<0.001, ****p<0.0001. All data is mean±SEM.

eicosanoids [3] = test: Eicosanoid profiling by LC-MS/MS, brain hemispheres of mice after sham or traumatic brain injury (TBI); settings: for eicosanoid values in left hemisphere / eicosanoid values in right hemisphere (trends): 5 mk/kg twice daily for 21 days
Procedure: (§1) Eicosanoids were measured by methods of liquid chromatography with tandem mass spectrometry with the use of spiked in deuterated internal standards. Eicosanoids measured included: the 6-keto-PGF1 alpha (6-keto-PGF1a, a hydrolysis product of and proxy for prostacyclin), thromboxane B2 (TXB2, a metabolite/product of and proxy for thromboxane A2), PGD2, PGE2, 15-keto-PGE2 (produced by 15-PGDH degradation of PGE2), tetranor PGE1 (TN-E, a metabolic product produced by beta-oxidation of PGE2), PGJ2, PGF2 alpha (PGF2a), LTB4, 15-HETE, 12-HETE, 8-HETE, 5-HETE, 17-HDHA, 12,13-DiHOME, 14,15-DHET, 11,12-DHET.
FIGS. 4-6 illustrate graphs showing comparisons of eicosanoid values in brain of wild-type male mice who at 8 weeks of age were subjected to sham or actual traumatic brain injury (TBI) delivered by blast wave to the left skull. 24 hours following sham or actual TBI treatment commenced by injection twice daily with either 5 mk/kg (+)-SW033291 or with matched vehicle control as described in Zhang et al. Science. 2015; 348(6240):aaa2340. PMCID: PMC4481126. Treatment continued for 21 days until mice reached 11 weeks of age. Three hours following the last injection, mice were sacrificed. After sacrifice the right or left hemisphere of the brain was dissected, flash frozen, and powdered, and eicosanoids were extracted in organic solvent for analysis. Values were normalized to the wet weight of the companion contralateral brain hemispheres and are recorded as ng eicosanoid per gm wet weight of tissue.

5×FAD mice = test: Blood-brain barrier integrity by transmission electron microscopy
Procedure: BBB integrity was analyzed using transmission electron microscopy (TEM) in 6 month old 5×FAD mice. […] Mice were treated with 5 mg/kg/day (+)-SW033291 (or vehicle) every day from 2 to 6 months of age, and then sacrificed for TEM analysis. Individual mouse data points are shown on the graph. Data was analyzed using one-way ANOVA; * p<0.05, ** p<0.01, *** p<0.001. All data is mean±SEM.

eicosanoids [4] = test: Eicosanoid profiling by LC-MS/MS, left hippocampus of wild-type and 5×FAD mice; settings: 5 mk/kg twice daily for 4 weeks
Procedure: as §1
FIG. 2 illustrates graphs showing comparison of eicosanoid values in brain of 6 month old male mice that are either wild-type or that are the 5×FAD strain of mice that model Alzheimer's disease. Beginning at 5 months of age both genotypes of mice were injected twice daily with either 5 mk/kg (+)-SW033291 or with matched vehicle control as described in Zhang et al. Science. 2015; 348(6240):aaa2340. PMCID: PMC4481126. Treatment continued twice daily for 4 weeks. Mice were sacrificed at 3 hours following their final injection. After sacrifice the left hippocampus was dissected, flash frozen, and powdered, and eicosanoids were extracted in aqueous buffer for analysis. Protein concentration of the extracts were assayed, and eicosanoid values were recorded as ng eicosanoid per mg protein.

[5] = MWM probe test, TBI mice, 5 mg/kg twice daily
[6] = following TBI, compared to vehicle treated mice
[7] = sham mice, compared to vehicle treated sham mice
[8] = 6 month old 5×FAD mice, 5 mg/kg/day from 2 to 6 months of age, TEM
[9] = 5×FAD mice, versus vehicle control treated 5×FAD mice

SMILES: CCCC[S+]([O-])c1sc2nc(-c3cccs3)cc(-c3ccccc3)c2c1N (single isomer, unassigned; (+)) [(+)-SW033291]
- average latency to crossing the platform area [1, 5]: significantly increased in the vehicle-treated TBI-injured group compared to all other groups
- number of platform crosses [1, 5]: significantly decreased in the vehicle-treated TBI-injured group compared to all other groups
- average (escape) latency to find the hidden platform (learning) ([1]; TBI and sham-injured mice, 4-day learning period, 5 mg/kg twice daily): not different between groups
- memory / cognitive impairment after TBI (MWM probe) ([1]; TBI mice, 5 mg/kg): TBI-injured animals treated with vehicle showed memory deficits compared to the (+)-SW033291-treated TBI group
- memory / cognitive impairment after TBI (MWM probe) ([1]; TBI mice, listed as (+)-SW033921, 5 mg/kg): protects wild type mice from cognitive impairment after TBI
- survival of young hippocampal neurons relative to WT-vehicle mice ([2]; 5×FAD mice): comparable extent as WT-vehicle mice
- survival of newborn hippocampal neurons (BrdU) ([2]; 5×FAD mice, 5 mg/kg/day): augments the survival of newborn hippocampal neurons
- survival of newborn hippocampal neurons (BrdU) ([2]; WT mice): augments the survival of newborn hippocampal neurons
- left hemisphere values of PGJ2, TN-E, 15-HETE, and 9,10-DiHOME (eicosanoids [3]; TBI treated mice versus sham injury vehicle treated mice): restoration
- eicosanoid values in left hemisphere (eicosanoids [3]; [6]): significantly increased PGJ2, TN-E, 15-HETE, 8-HETE, 5-HETE, 9,10-DiHOME, and LTB4
- eicosanoid values in right hemisphere (trends) (eicosanoids [3]; [6]): trends toward decreased PGJ2, and TxB2
- eicosanoid values in left hemisphere (eicosanoids [3]; [7]): significantly decreased PGE2, PGF2a, 6-keto-PGF1a, PGD2, PGJ2, TN-E, TxB2, 15-HETE, 12-HETE, 9,10-DiHOME
- eicosanoid values in right hemisphere (trends) (eicosanoids [3]; [7]): a trend toward increased PGE2, 15-keto-PGE2, PGF2a, TN-E, 15-HETE, 12-HETE, 8-HETE, 5-HETE, and LTB4
- blood-brain barrier (BBB) protection (5×FAD mice; 5×FAD mice): protects the blood-brain barrier (BBB) in 5×FAD mice
- disruption of astrocyte end feet that envelope the BBB (5×FAD mice; [8]): prevented this disruption
- enlargement of the perivascular space (5×FAD mice; [8]): prevented this disruption
- TXB2 in left hippocampus (eicosanoids [4]; [9]): significant increase in TXB2
- eicosanoid values in left hippocampus (trends) (eicosanoids [4]; [9]): a trend to increased 6-keto-PGF1a, PGD2, PGE2, PGJ2, PGF2a
- eicosanoid values in left hippocampus (trends) (eicosanoids [4]; wild-type mice, versus vehicle treated mice): trends for increases in 6-keto-PGF1a, PGD2, PGE2, PGF2a, and 9,10-DiHOME
